The values below come from patent US20230012570A1, “BICYCLIC COMPOUND USED AS SELECTIVE ANDROGEN RECEPTOR MODULATOR” (MEDSHINE DISCOVERY INC., priority 2019, published 2023).

One may read the IC50 as the concentration that gives 50% inhibition.

Common to all, as to assay type: in vitro ADME
One test has as its target T1, CYP2C19 (Homo sapiens, UniProt P33261).
T1 construct: Mixed human liver microsomes (HLM) were purchased from Corning Inc; tissue Corning Inc. or XenoTech, LLC. or other suppliers; host or cells: pooled human liver microsomes
Kind of test: Human liver microsomal CYP inhibition experiment, CYP2C19. As for the experimental part:
(§1) Experiment Embodiment 4: Human Liver Microsomal CYP Inhibition Experiment
(§2) The inhibitory effects of the test compound 3A and VK5211 on the activities of human liver microsomal cytochrome P450 isozymes (CYP1A2, CYP2C9, CYP2C19, CYP2D6 and CYP3A4) were determined.
(§3) Mixed human liver microsomes (HLM) were purchased from Corning Inc. (Steuben, New York, USA) or XenoTech, LLC. (Lenexa, Kans., USA) or other suppliers, and were stored at a temperature below −60° C. before use.
(§4) First, the test compound (10.0 mM) was gradient diluted to prepare working solution (100×final concentration), and the concentrations of the working solution were: 5.00, 1.50, 0.500, 0.150, 0.0500, 0.0150, 0.00500 mM, and a working solution of each positive inhibitor of P450 isozymes (CYP1A2, CYP2C9, CYP2C19, CYP2D6, and CYP3A4) and a specific substrate mixture thereof (5 in 1) were prepared at the same time; human liver microsomes stored in a refrigerator at a temperature lower than −60° C. were put on ice to thaw, and when all the human liver microsomes were dissolved, the microsomes were diluted with potassium phosphate buffer (PB) to prepare a working solution of a certain concentration (0.253 mg/mL). […] The concentration of metabolites produced by the probe substrate in the sample was determined by liquid chromatography-tandem mass spectrometry (LC-MS/MS) method. […]
For orientation: Microsomes from liver hold many membrane-bound enzymes, among them those of drug oxidation.

For the next test, the target named is T2, CYP1A2 (Homo sapiens, UniProt P05177).
T2 construct: Mixed human liver microsomes (HLM) were purchased from Corning Inc; tissue Corning Inc. or XenoTech, LLC. or other suppliers; host or cells: pooled human liver microsomes
T2 sequence (P05177 1-516): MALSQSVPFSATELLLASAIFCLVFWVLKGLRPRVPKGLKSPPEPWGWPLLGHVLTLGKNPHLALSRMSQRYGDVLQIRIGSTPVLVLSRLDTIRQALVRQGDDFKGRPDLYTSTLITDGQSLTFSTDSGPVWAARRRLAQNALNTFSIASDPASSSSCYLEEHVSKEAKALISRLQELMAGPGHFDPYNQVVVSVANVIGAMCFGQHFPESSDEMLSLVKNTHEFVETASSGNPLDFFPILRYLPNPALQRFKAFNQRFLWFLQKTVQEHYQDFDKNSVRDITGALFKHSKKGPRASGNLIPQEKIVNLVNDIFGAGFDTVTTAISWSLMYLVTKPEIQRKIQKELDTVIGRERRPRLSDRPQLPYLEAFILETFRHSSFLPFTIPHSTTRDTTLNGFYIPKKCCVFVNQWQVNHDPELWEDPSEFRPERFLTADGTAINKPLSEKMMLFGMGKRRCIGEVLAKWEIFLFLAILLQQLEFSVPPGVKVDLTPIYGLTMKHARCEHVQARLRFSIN
The test is described as follows: Human liver microsomal CYP inhibition experiment, CYP1A2. The method, then: as §1, §2, §3, §4

The target of a further test is T3, CYP2C9 (Homo sapiens, UniProt P11712).
T3 construct: Mixed human liver microsomes (HLM) were purchased from Corning Inc; tissue Corning Inc. or XenoTech, LLC. or other suppliers; host or cells: pooled human liver microsomes
T3 sequence (P11712 whole entry): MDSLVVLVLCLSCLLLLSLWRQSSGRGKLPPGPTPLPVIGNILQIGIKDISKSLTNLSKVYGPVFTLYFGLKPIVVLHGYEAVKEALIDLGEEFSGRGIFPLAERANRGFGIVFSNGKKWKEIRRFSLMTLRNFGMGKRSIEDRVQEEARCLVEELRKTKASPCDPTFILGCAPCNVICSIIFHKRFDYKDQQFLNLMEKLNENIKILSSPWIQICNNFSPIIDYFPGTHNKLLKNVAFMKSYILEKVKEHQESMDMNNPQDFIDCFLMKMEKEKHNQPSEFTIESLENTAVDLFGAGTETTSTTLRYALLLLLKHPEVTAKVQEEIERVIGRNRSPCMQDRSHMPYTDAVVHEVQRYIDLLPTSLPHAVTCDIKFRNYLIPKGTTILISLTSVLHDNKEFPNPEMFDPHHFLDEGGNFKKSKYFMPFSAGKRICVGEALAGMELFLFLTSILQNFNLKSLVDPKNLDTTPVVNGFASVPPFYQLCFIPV
The test is described as follows: Human liver microsomal CYP inhibition experiment, CYP2C9. The method, then: as §1, §2, §3, §4

The target of a further test is T4, CYP3A4 (Homo sapiens, UniProt P08684).
T4 construct: Mixed human liver microsomes (HLM) were purchased from Corning Inc; tissue Corning Inc. or XenoTech, LLC. or other suppliers; host or cells: pooled human liver microsomes
T4 sequence (P08684 whole entry): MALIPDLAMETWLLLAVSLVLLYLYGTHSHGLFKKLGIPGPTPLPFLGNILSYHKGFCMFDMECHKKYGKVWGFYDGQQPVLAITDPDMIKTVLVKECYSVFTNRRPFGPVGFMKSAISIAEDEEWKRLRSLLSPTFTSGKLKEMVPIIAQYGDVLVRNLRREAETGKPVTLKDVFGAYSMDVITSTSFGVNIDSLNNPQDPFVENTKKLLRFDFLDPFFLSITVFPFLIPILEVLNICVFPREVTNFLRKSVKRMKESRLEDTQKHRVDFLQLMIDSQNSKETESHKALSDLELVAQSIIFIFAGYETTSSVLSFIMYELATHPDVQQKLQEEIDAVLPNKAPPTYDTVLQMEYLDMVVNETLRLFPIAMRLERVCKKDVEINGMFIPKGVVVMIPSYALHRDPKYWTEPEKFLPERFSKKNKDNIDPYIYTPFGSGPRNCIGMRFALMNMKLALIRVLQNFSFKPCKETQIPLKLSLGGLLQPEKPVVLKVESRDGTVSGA
Kind of test: Human liver microsomal CYP inhibition experiment, CYP3A4. The method, then:
as §1, §2, §3, §4

In the next test the target is T5, CYP2D6 (Homo sapiens, UniProt P10635).
T5 construct: Mixed human liver microsomes (HLM) were purchased from Corning Inc; tissue Corning Inc. or XenoTech, LLC. or other suppliers; host or cells: pooled human liver microsomes
T5 sequence (P10635 whole entry): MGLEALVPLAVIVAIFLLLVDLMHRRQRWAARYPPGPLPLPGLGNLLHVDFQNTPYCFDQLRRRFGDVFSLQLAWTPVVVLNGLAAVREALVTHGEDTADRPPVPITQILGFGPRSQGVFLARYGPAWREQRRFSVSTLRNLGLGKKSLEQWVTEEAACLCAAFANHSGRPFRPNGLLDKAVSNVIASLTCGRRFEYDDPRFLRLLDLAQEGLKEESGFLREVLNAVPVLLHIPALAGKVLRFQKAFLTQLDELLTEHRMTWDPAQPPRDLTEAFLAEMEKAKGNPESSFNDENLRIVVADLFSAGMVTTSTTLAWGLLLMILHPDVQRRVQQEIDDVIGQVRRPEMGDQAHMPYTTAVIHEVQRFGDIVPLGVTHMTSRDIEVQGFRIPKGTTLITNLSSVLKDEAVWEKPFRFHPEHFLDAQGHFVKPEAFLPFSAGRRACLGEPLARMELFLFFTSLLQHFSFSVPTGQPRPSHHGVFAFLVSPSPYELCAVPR
Kind of test: Human liver microsomal CYP inhibition experiment, CYP2D6. As for the experimental part: as §1, §2, §3, §4

T1 sequence (P33261 whole entry): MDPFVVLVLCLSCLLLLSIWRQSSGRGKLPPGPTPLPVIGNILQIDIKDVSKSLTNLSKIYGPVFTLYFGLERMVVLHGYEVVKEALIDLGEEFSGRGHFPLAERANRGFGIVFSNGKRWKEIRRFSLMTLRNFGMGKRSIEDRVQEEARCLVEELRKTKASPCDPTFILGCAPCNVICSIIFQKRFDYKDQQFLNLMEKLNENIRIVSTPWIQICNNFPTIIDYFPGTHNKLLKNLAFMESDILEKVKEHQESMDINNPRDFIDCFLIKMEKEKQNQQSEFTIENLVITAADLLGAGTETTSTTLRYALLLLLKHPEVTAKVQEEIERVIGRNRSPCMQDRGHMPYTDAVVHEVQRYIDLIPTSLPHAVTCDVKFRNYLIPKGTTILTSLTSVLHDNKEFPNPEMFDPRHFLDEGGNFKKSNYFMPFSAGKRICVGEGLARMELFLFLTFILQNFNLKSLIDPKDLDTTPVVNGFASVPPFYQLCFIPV

Regarding `N#Cc1ccc(N2CCC[C@@H]2[C@@H](O)C(F)(F)F)cc1C(F)(F)F` [VK5211, reference compound], the IC50 is 4.23 µM on CYP2C19; 4.44 µM against CYP1A2; 5.84 µM against CYP2C9; 44.7 µM against CYP3A4; 7.67 µM against CYP2D6.
